# Source: ChEMBL document CHEMBL3885861, “Open TG-GATES”
# Organism: Rattus norvegicus
# Assay: Open TG-GATES - Regimen: Single
# Type: toxicity, organism-based, Sprague-Dawley
# Design: regimen Single, gender Male, age 6 weeks
# Conditions: in vivo, po, 1000 mg/kg, route gavage, dose level Middle; for APTT / Bas / Eos / Fbg / Hb / Ht / Lym / MCH / MCHC / MCV / Mono / Neu / Plat / RBC / Ret / WBC: tissue Blood; for KIDNEY_L / KIDNEY_R / KIDNEY_TOTAL: tissue Kidney; for LIVER: tissue Liver; for ALP / ALT / AST / BUN / CRE / Ca / Cl / DBIL / GLC / IP / K / LDH / Na / PL / RALB / TBIL / TC / TG / TP / gamma-GTP: tissue Plasma
compound,measurement,setting,value
CC(=O)Oc1ccccc1C(=O)O [ASPIRIN],TERMINAL_BW,3 h,217.1 g
same,APTT,3 h,19 s
same,Bas,3 h,0%
same,Eos,3 h,1%
same,Fbg,3 h,217.4 mg/dL
same,Hb,3 h,13.6 g/dL
same,Ht,3 h,37.9%
same,Lym,3 h,69.4%
same,MCH,3 h,21.9 pg
same,MCHC,3 h,35.9%
same,MCV,3 h,60.8 fL
same,Mono,3 h,2.8%
same,Neu,3 h,25.4%
same,Plat,3 h,121 x10_4/uL
same,RBC,3 h,624.8 x10_4/ul
same,Ret,3 h,8%
same,WBC,3 h,72.1 x10_2/uL
same,KIDNEY_L,3 h,0.9 g
same,KIDNEY_R,3 h,1 g
same,KIDNEY_TOTAL,3 h,1.9 g
same,LIVER,3 h,8.8 g
same,ALP,3 h,835 IU/L
same,ALT,3 h,44.4 IU/L
same,AST,3 h,79 IU/L
same,BUN,3 h,15.8 mg/dL
same,CRE,3 h,0.4 mg/dL
same,Ca,3 h,8.7 mg/dL
same,Cl,3 h,104 meq/L
same,DBIL,3 h,0.06 mg/dL
same,GLC,3 h,203.8 mg/dL
same,IP,3 h,8.3 mg/dL
same,K,3 h,3.4 meq/L
same,LDH,3 h,205.8 IU/L
same,Na,3 h,141 meq/L
same,PL,3 h,88.8 mg/dL
same,RALB,3 h,3.4 g/dL
same,TBIL,3 h,0.1 mg/dL
same,TC,3 h,54.6 mg/dL
same,TG,3 h,26.2 mg/dL
same,TP,3 h,5.5 g/dL
same,gamma-GTP,3 h,1 IU/L
same,TERMINAL_BW,6 h,218.6 g
same,APTT,6 h,19.9 s
same,Bas,6 h,0%
same,Eos,6 h,0.6%
same,Fbg,6 h,233.4 mg/dL
same,Hb,6 h,13.7 g/dL
same,Ht,6 h,37.9%
same,Lym,6 h,66%
same,MCH,6 h,21.5 pg
same,MCHC,6 h,36.2%
same,MCV,6 h,59.5 fL
same,Mono,6 h,3.4%
same,Neu,6 h,29%
same,Plat,6 h,132.5 x10_4/uL
same,RBC,6 h,637.2 x10_4/ul
same,Ret,6 h,7.9%
same,WBC,6 h,97.1 x10_2/uL
same,KIDNEY_L,6 h,1 g
same,KIDNEY_R,6 h,0.9 g
same,KIDNEY_TOTAL,6 h,1.9 g
same,LIVER,6 h,8.5 g
same,ALP,6 h,820.8 IU/L
same,ALT,6 h,35.4 IU/L
same,AST,6 h,78.2 IU/L
same,BUN,6 h,14.8 mg/dL
same,CRE,6 h,0.4 mg/dL
same,Ca,6 h,8.3 mg/dL
same,Cl,6 h,104.2 meq/L
same,DBIL,6 h,0.056 mg/dL
same,GLC,6 h,209.4 mg/dL
same,IP,6 h,8.1 mg/dL
same,K,6 h,3.3 meq/L
same,LDH,6 h,236.6 IU/L
same,Na,6 h,140.2 meq/L
same,PL,6 h,108 mg/dL
same,RALB,6 h,3.6 g/dL
same,TBIL,6 h,0.098 mg/dL
same,TC,6 h,68.6 mg/dL
same,TG,6 h,16.8 mg/dL
same,TP,6 h,5.7 g/dL
same,gamma-GTP,6 h,1 IU/L
same,TERMINAL_BW,9 h,217.1 g
same,APTT,9 h,21.6 s
same,Bas,9 h,0%
same,Eos,9 h,1%
same,Fbg,9 h,232.4 mg/dL
same,Hb,9 h,13.7 g/dL
same,Ht,9 h,38.1%
same,Lym,9 h,69.4%
same,MCH,9 h,21.4 pg
same,MCHC,9 h,35.8%
same,MCV,9 h,59.7 fL
same,Mono,9 h,2.4%
same,Neu,9 h,27%
same,Plat,9 h,128.3 x10_4/uL
same,RBC,9 h,638.6 x10_4/ul
same,Ret,9 h,7.8%
same,WBC,9 h,93.3 x10_2/uL
same,KIDNEY_L,9 h,1 g
same,KIDNEY_R,9 h,0.9 g
same,KIDNEY_TOTAL,9 h,1.9 g
same,LIVER,9 h,7.5 g
same,ALP,9 h,903.8 IU/L
same,ALT,9 h,33.2 IU/L
same,AST,9 h,79.8 IU/L
same,BUN,9 h,13.2 mg/dL
same,CRE,9 h,0.4 mg/dL
same,Ca,9 h,8.5 mg/dL
same,Cl,9 h,106.4 meq/L
same,DBIL,9 h,0.05 mg/dL
same,GLC,9 h,202.4 mg/dL
same,IP,9 h,7.7 mg/dL
same,K,9 h,3.2 meq/L
same,LDH,9 h,227.2 IU/L
same,Na,9 h,140.6 meq/L
same,PL,9 h,102.4 mg/dL
same,RALB,9 h,3.5 g/dL
same,TBIL,9 h,0.098 mg/dL
same,TC,9 h,62.8 mg/dL
same,TG,9 h,9.2 mg/dL
same,TP,9 h,5.5 g/dL
same,gamma-GTP,9 h,1.2 IU/L
same,TERMINAL_BW,24 h,217 g
same,APTT,24 h,29.4 s
same,Bas,24 h,0.4%
same,Eos,24 h,1%
same,Fbg,24 h,225 mg/dL
same,Hb,24 h,14.4 g/dL
same,Ht,24 h,39.3%
same,Lym,24 h,72%
same,MCH,24 h,22.1 pg
same,MCHC,24 h,36.6%
same,MCV,24 h,60.4 fL
same,Mono,24 h,2.2%
same,Neu,24 h,24.2%
same,Plat,24 h,131.6 x10_4/uL
same,RBC,24 h,650.8 x10_4/ul
same,Ret,24 h,7.1%
same,WBC,24 h,89.6 x10_2/uL
same,KIDNEY_L,24 h,0.9 g
same,KIDNEY_R,24 h,0.9 g
same,KIDNEY_TOTAL,24 h,1.9 g
same,LIVER,24 h,8.1 g
same,ALP,24 h,933.8 IU/L
same,ALT,24 h,38 IU/L
same,AST,24 h,110 IU/L
same,BUN,24 h,14.8 mg/dL
same,CRE,24 h,0.4 mg/dL
same,Ca,24 h,8.7 mg/dL
same,Cl,24 h,105.6 meq/L
same,DBIL,24 h,0.052 mg/dL
same,GLC,24 h,214 mg/dL
same,IP,24 h,7.3 mg/dL
same,K,24 h,3.5 meq/L
same,LDH,24 h,227.6 IU/L
same,Na,24 h,140.8 meq/L
same,PL,24 h,75.4 mg/dL
same,RALB,24 h,3.5 g/dL
same,TBIL,24 h,0.1 mg/dL
same,TC,24 h,40.2 mg/dL
same,TG,24 h,23.4 mg/dL
same,TP,24 h,5.7 g/dL
same,gamma-GTP,24 h,1.6 IU/L
